Results on one compound are retold here after publication PMC11335300, “The novel function of an orphan pheromone receptor reveals the sensory specializations of two potential distinct types of sex pheromones in noctuid moth” (Cellular and Molecular Life Sciences: CMLS, 2024).

The assay concerns the target T1, HarmOR11/Orco (Helicoverpa armigera, UniProt A0A7D5JUD6).
T1 construct: full-length HarmOR11 and HarmOrco cloned from antennal cDNA into pT7Ts; cRNAs co-injected in Xenopus laevis oocytes; heteromeric channel, exact stoichiometry unknown (2:2 only modelled); with Odorant receptor coreceptor
T1 sequence (A0A7D5JUD6 1-431): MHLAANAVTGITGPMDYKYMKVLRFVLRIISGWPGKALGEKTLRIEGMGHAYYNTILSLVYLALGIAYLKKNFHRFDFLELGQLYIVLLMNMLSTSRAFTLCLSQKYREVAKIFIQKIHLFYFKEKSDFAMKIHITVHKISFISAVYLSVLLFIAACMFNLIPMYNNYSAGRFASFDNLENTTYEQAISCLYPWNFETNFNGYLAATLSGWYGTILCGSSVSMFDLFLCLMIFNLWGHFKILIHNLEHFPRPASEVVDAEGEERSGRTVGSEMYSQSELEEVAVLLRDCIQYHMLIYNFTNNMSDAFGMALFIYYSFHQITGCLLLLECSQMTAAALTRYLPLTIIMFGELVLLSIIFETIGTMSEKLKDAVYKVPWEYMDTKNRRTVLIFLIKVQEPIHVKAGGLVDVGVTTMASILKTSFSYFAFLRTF
T1 sequence (E5KJL4 1-473 partner): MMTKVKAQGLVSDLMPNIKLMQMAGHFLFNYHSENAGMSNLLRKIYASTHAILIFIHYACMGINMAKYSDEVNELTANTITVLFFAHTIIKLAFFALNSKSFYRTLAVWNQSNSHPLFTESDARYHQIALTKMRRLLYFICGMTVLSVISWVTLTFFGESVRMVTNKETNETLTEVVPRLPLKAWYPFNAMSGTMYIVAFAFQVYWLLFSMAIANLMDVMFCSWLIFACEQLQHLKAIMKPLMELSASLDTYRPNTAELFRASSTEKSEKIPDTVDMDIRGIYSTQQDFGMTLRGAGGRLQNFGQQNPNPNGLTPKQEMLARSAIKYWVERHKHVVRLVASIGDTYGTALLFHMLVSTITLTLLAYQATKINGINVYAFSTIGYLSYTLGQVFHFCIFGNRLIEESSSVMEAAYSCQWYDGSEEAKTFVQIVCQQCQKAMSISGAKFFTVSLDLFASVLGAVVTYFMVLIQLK
Briefly: two-electrode voltage clamp of Xenopus oocytes co-expressing HarmOR11/Orco. Type of assay: cell-based. The note with it: agonist; holding potential -80 mV; Ringer's buffer pH 7.6; from DMSO stock; unit printed as mol (concentration meant). In general terms: Two-electrode voltage clamp holds a large cell at a set potential and records current.

`CC/C=C\C/C=C\C/C=C\CCCCCCCCCCC` [3Z,6Z,9Z-21:H, 3Z,6Z,9Z-heneicosatriene] gave an EC50 of 1.637e-05 mol.
